From ChEMBL document CHEMBL4251581, “Synthesis and antimycobacterial activity of triterpeni≿ A-ring azepanes” (Eur J Med Chem, 2018)
Values after ≈ are worked out from the molar mass of the structure shown.

Tests used:
Format in all cases: functional
[1] = test system: Mycobacterium tuberculosis; experiment: Antimycobacterial activity against rifampicin-resistant Mycobacterium tuberculosis H37Rv RIF-R1 harboring rpoB S522L mutant
[2] = test system: Mycobacterium tuberculosis; experiment: Antimycobacterial activity against rifampicin-resistant Mycobacterium tuberculosis H37Rv ATCC 35828 RIF-R2
[3] = test system: Mycobacterium tuberculosis; experiment: Antimycobacterial activity against isoniazid-resistant Mycobacterium tuberculosis H37Rv ATCC 35822 INH-R2
[4] = test system: Mycobacterium tuberculosis; experiment: Antimycobacterial activity against fluoroquinolone-resistant Mycobacterium tuberculosis H37Rv FQ-R1 harboring unidentified mutation
[5] = test system: Mycobacterium tuberculosis; experiment: Antimycobacterial activity against isoniazid-resistant Mycobacterium tuberculosis H37Rv INH-R1 harboring katG Y155 truncated mutant
[6] = test system: Mycobacterium tuberculosis; experiment: Antimycobacterial activity against ethambutol-resistant Mycobacterium tuberculosis H37Rv ATCC 35837
[7] = test system: Mycobacterium tuberculosis; experiment: Antimycobacterial activity against ethionamide-resistant Mycobacterium tuberculosis H37Rv ATCC 35830
[8] = test system: Mycobacterium tuberculosis; experiment: Antimycobacterial activity against kanamycin-resistant Mycobacterium tuberculosis H37Rv ATCC 3582
[9] = test system: Mycobacterium tuberculosis; experiment: Antimycobacterial activity against isoniazid-resistant Mycobacterium tuberculosis H37Rv ATCC 35822
[10] = test system: Mycobacterium tuberculosis; experiment: Antimycobacterial activity against streptomycin-resistant Mycobacterium tuberculosis H37Rv ATCC 35820
[11] = test system: Mycobacterium tuberculosis; experiment: Antimycobacterial activity against ofloxacin-resistant Mycobacterium tuberculosis H37Rv ATCC 35828
[12] = test system: Mycobacterium tuberculosis; experiment: Antimycobacterial activity against rifampicin-resistant Mycobacterium tuberculosis H37Rv ATCC 35828
[13] = test system: Mycobacterium tuberculosis; experiment: Antimycobacterial activity against streptomycin-resistant Mycobacterium tuberculosis H37Rv ATCC 35820 by microplate alamar blue assay

## CC1(C)CC[C@]2(COC(=O)/C=C/c3ccccc3)CC[C@]3(C)C(=CC[C@@H]4[C@@]5(C)CCCNC(C)(C)[C@@H]5CC[C@]43C)[C@H]2C1
[1]
  MIC: 7.4 µg/mL (≈ 12.9 µM)
[2]
  MIC: 14 µg/mL (≈ 24.5 µM)
[3]
  MIC: 12 µg/mL (≈ 21 µM)
[4]
  MIC: 13 µg/mL (≈ 22.7 µM)
[5]
  MIC: 13 µg/mL (≈ 22.7 µM)

## C=C(C)[C@@H]1CC[C@]2(CO)CC[C@]3(C)[C@H](CC[C@@H]4[C@@]5(C)CCCNC(C)(C)[C@@H]5CC[C@]43C)[C@@H]12
[6]
  MIC: 5 µg/mL (≈ 11.3 µM)
[7]
  MIC: 10 µg/mL (≈ 22.6 µM)
[8]
  MIC: 10 µg/mL (≈ 22.6 µM)
[9]
  MIC: 5 µg/mL (≈ 11.3 µM)
[10]
  MIC: 5 µg/mL (≈ 11.3 µM)

## COc1ccc(/C=C/C(=O)OC[C@]23CC[C@@H](C)[C@H](C)[C@@H]2C2=CC[C@@H]4[C@@]5(C)CCCNC(C)(C)[C@@H]5CC[C@@]4(C)[C@]2(C)CC3)cc1
[1]
  MIC: 24 µg/mL (≈ 39.9 µM)
[2]
  MIC: 21 µg/mL (≈ 34.9 µM)
[3]
  MIC: 17 µg/mL (≈ 28.2 µM)
[4]
  MIC: 20 µg/mL (≈ 33.2 µM)
[5]
  MIC: 20 µg/mL (≈ 33.2 µM)

## C[C@H]1[C@H](C)CC[C@]2(CO)CC[C@]3(C)C(=CC[C@@H]4[C@@]5(C)CCCNC(C)(C)[C@@H]5CC[C@]43C)[C@@H]12
[1]
  MIC: 29 µg/mL (≈ 65.6 µM)
[2]
  MIC: 51 µg/mL (≈ 115 µM)
[3]
  MIC: 39 µg/mL (≈ 88.3 µM)
[4]
  MIC: 34 µg/mL (≈ 77 µM)
[5]
  MIC: 37 µg/mL (≈ 83.8 µM)

## C=C(C)[C@@H]1CC[C@]2(COC(=O)CCC(=O)O)CC[C@]3(C)[C@H](CC[C@@H]4[C@@]5(C)CCCNC(C)(C)[C@@H]5CC[C@]43C)[C@@H]12
[11]
  MIC: 6 µg/mL (≈ 11.1 µM)
[9]
  MIC: 12 µg/mL (≈ 22.1 µM)
[12]
  MIC: 6 µg/mL (≈ 11.1 µM)

## C[C@H]1[C@H](C)CC[C@]2(COC(=O)/C=C/c3ccccc3)CC[C@]3(C)C(=CC[C@@H]4[C@@]5(C)CCCNC(C)(C)[C@@H]5CC[C@]43C)[C@@H]12
[1]
  MIC: 19 µg/mL (≈ 33.2 µM)
[2]
  MIC: 24 µg/mL (≈ 42 µM)
[3]
  MIC: 15 µg/mL (≈ 26.2 µM)
[4]
  MIC: 27 µg/mL (≈ 47.2 µM)
[5]
  MIC: 28 µg/mL (≈ 49 µM)

## C=C(C)[C@@H]1CC[C@]2(COC(=O)/C=C/c3ccccc3)CC[C@]3(C)[C@H](CC[C@@H]4[C@@]5(C)CCCNC(C)(C)[C@@H]5CC[C@]43C)[C@@H]12
[11]
  MIC: 1 µg/mL (≈ 1.75 µM)
[9]
  MIC: 4 µg/mL (≈ 6.99 µM)
[12]
  MIC: 1 µg/mL (≈ 1.75 µM)

## CC1(C)CC[C@]2(CO)CC[C@]3(C)C(=CC[C@@H]4[C@@]5(C)CCCNC(C)(C)[C@@H]5CC[C@]43C)[C@H]2C1
[1]
  MIC: 39 µg/mL (≈ 88.3 µM)
[2]
  MIC: 69 µg/mL (≈ 156 µM)
[3]
  MIC: 15 µg/mL (≈ 34 µM)
[4]
  MIC: 44 µg/mL (≈ 99.6 µM)
[5]
  MIC: 34 µg/mL (≈ 77 µM)

## NNC(=O)c1ccncc1 [ISONIAZID]
[1]
  MIC: 1.2 µg/mL (≈ 8.75 µM)
[2]
  MIC: 1.3 µg/mL (≈ 9.48 µM)
[3]
  MIC: 1.4 µg/mL (≈ 10.2 µM)
[4]
  MIC: 29 µg/mL (≈ 211 µM)
[12]
  MIC: 0.02 µg/mL (≈ 0.146 µM)
[5]
  MIC: >200 µg/mL

## CO[C@H]1/C=C/O[C@@]2(C)Oc3c(C)c(O)c4c(O)c(c(/C=N/N5CCN(C)CC5)c(O)c4c3C2=O)NC(=O)/C(C)=C\C=C\[C@H](C)[C@H](O)[C@@H](C)[C@@H](O)[C@@H](C)[C@H](OC(C)=O)[C@@H]1C [RIFAMPIN]
[1]
  MIC: 0.29 µg/mL (≈ 0.352 µM)
[11]
  MIC: 0.195 µg/mL (≈ 0.237 µM)
[9]
  MIC: 0.05 µg/mL (≈ 0.0608 µM)
[2]
  MIC: 0.62 µg/mL (≈ 0.753 µM)
[3]
  MIC: 100 µg/mL (≈ 122 µM)
[4]
  MIC: 0.37 µg/mL (≈ 0.45 µM)
[5]
  MIC: 0.015 µg/mL (≈ 0.0182 µM)

## C[C@H]1[C@H](C)CC[C@]2(C(=O)O)CC[C@]3(C)C(=CC[C@@H]4[C@@]5(C)CC[C@H](O)C(C)(C)[C@@H]5CC[C@]43C)[C@H]12 [URSOLIC ACID]
[13]
  MIC: 12.5 µg/mL (≈ 27.4 µM)
